From patent US20170015555A1, “LONG-TERM PRESERVATION AND NOVEL APPLICATION OF CHLOROUS ACID AQUEOUS SOLUTION FORMULATION” (priority 2013, published 2017)

Key:
[1] = test system: Microbes of the genus Salmonella: Salmonella Enteritidis IF03313; type: cell-based; details: stored at 25° C. Day 0; 1000 ppm available chlorine
Description: 1) Chlorous acid aqueous solution formulation (see Example 1: Table 11) Treatment sheet (material: 100% cotton): (about 27×40 cm) *Impregnated at a ratio of weight of treatment sheet (g): amount of liquid (ml)=1:3 2) Imitation vomit Miso solution: adjusted to pH of 2 with hydrochloric acid 3) Test Microbes that were Used E. coli: Escherichia coli IF03927 Staphylococcus aureus: Staphylococcus aureus IF0 12732 Thermoduric Microbes (Bacillus cereus): Bacillus cereus NBRC15305 Microbes of the genus Salmonella: Salmonella Enteritidis IF03313 Enterohemorrhagic Escherichia coli O157: Escherichia coli O157 Enterohemorrhagic Escherichia coli O111: Escherichia coli O111 Enterohemorrhagic Escherichia coli O26: Escherichia coli O26
(1) Imitation vomit was spread in an area about the size of an A4 sheet. (2) 5 dry sheets were laid thereon. (3) An agent solution was poured on the dry sheets to wipe off the imitation vomit. (4) A cotton swab was soaked with sterile saline. A portion where imitation vomit was spread was scrubbed with the cotton swab to collect microbes remaining on the floor. After suspending in saline, the solution was spread on a petri dish and cultured. The number of each of the microbes was measured. (5) Test operations 3 and 4 were repeated a total of 7 times (repeated until the imitation vomit could be removed completely).

[2] = Available chlorine concentration after impregnating diluent in treatment sheet; type: physicochemical
Protocol: (1) The available chlorine concentration of the “chlorous acid aqueous solution formulation (see Example 1: Table 11)” was measured, and the formulation was diluted to an available chlorine concentration of 1000 ppm [chlorous acid (HClO2) concentration: 489 ppm] or 500 ppm [chlorous acid (HClO2) concentration: 245 ppm]. (2) The available chlorine concentration of sodium hypochlorite was measured, and the sodium hypochlorite was diluted to an available chlorine concentration of 1000 ppm or 500 ppm. (3) The available chlorine concentration of the diluted solution was measured to find the available chlorine concentration prior to contact with a treatment sheet. (4) Treatment sheets were stacked, rolled up and inserted into a 200 ml-capacity PET bottle. A solution diluted so that the weight ratio of treatment sheet: agent solution would be 1:3 was poured into the 200 ml-capacity PET bottle containing the treatment sheets. (5) After contact with treatment sheets, treatment sheets were pulled out from the 200 ml-capacity PET bottle immediately after contact, after 1 hour, after 2 hours, after 3 hours, after 12 hours, after 24 hours, after 48 hours (after 2 days), after 72 hours (after 3 days), and after 168 hours (after 7 days). The sheets were used as specimens for examining available chlorine concentrations. (6) Solutions from the treatment sheets, the specimens pulled out from the 200 ml-capacity PET bottle, were wrung out into a 100 mL beaker. The available chlorine concentration of the solution was measured.
1. About 5 g of solution that was wrung out from the specimen was collected in a triangular flask with a stopper. 2. After adding 10 mL of 10 w/w % potassium iodide to the triangular flask with a stopper, 10 mL of 10% sulfuric acid was added. 3. After sealing, the mixture was left standing for 15 minutes in the dark. 4. 0.1 mol/L sodium thiosulfate solution was added until the color became light yellow. About 1 mL of 1 w/w % starch solution was added, and 0.1 mol/L sodium thiosulfate solution was added until the color of the solution became colorless. 5. Chlorine titer was found by the following equation.
R; Chlorine titer value a; Amount of 0.1 mol/L sodium thiosulfate solution added (g) f; Factor of 0.1 mol/L sodium thiosulfate solution w; Weight of measured specimen solution (g) 0.0035; Amount of chlorine corresponding to 1 g of 0.1 mol/L sodium thiosulfate 100; Percentage

**Q.** Which results are given for OCl [Sodium Hypochlorite, sodium hypochlorite]?
**A.** Number of Times Wiped 1 Time (remaining microbes) [1]: <10; Number of Times Wiped 2 Times (remaining microbes) [1]: <10; Number of Times Wiped 3 Times (remaining microbes) [1]: <10; Available Chlorine Concentration ([2]; set concentration 500, 1 hour of contact): 175 ppm; Available Chlorine Concentration ([2]; set concentration 500, 2 hours of contact): 168 ppm; Available Chlorine Concentration ([2]; set concentration 500, 3 hours of contact): 144 ppm; Available Chlorine Concentration ([2]; set concentration 500, 12 hours of contact): 91 ppm; Available Chlorine Concentration ([2]; set concentration 500, 24 hours of contact): 68 ppm; Available Chlorine Concentration ([2]; set concentration 500, 48 hours of contact): 39 ppm; Available Chlorine Concentration ([2]; set concentration 500, 72 hours of contact): 39 ppm; Available Chlorine Concentration ([2]; set concentration 500, 168 hours of contact): 37 ppm; Available Chlorine Concentration ([2]; set concentration 500, 504 hours of contact): 32 ppm; Available Chlorine Concentration ([2]; set concentration 500, 720 hours of contact): 20 ppm; Available Chlorine Concentration ([2]; set concentration 500, before contact with treatment sheet): 549 ppm; Available Chlorine Concentration ([2]; set concentration 500, immediately after contact): 352 ppm; Available Chlorine Concentration ([2]; set concentration 1000, 1 hour of contact): 631 ppm; Available Chlorine Concentration ([2]; set concentration 1000, 2 hours of contact): 595 ppm; Available Chlorine Concentration ([2]; set concentration 1000, 3 hours of contact): 515 ppm; Available Chlorine Concentration ([2]; set concentration 1000, 12 hours of contact): 184 ppm; Available Chlorine Concentration ([2]; set concentration 1000, 24 hours of contact): 89 ppm; Available Chlorine Concentration ([2]; set concentration 1000, 48 hours of contact): 76 ppm; Available Chlorine Concentration ([2]; set concentration 1000, 72 hours of contact): 54 ppm; Available Chlorine Concentration ([2]; set concentration 1000, 168 hours of contact): 40 ppm; Available Chlorine Concentration ([2]; set concentration 1000, 504 hours of contact): 34 ppm; Available Chlorine Concentration ([2]; set concentration 1000, 720 hours of contact): 24 ppm; Available Chlorine Concentration ([2]; set concentration 1000, before contact with treatment sheet): 1045 ppm; Available Chlorine Concentration ([2]; set concentration 1000, immediately after contact): 690 ppm
